Assay results taken from patent US9133197B2, “Oxidated derivatives of triazolylpurines useful as ligands of the adenosine A2A receptor and their use as medicaments” (SIGMA-TAU INDUSTRIE FARMACEUTICHE RIUNITE S.P.A., priority 2009, dated 2015).

Assays:
[1] = target: T1, human adenosine A2a receptor (Homo sapiens (Human), UniProt P29274); experiment: Inhibition of NECA-induced cAMP accumulation in HEK 293 cells; format: cell-based; settings: HEK 293 cells expressing human A2a; 100 nmol/l NECA; mean of four experiments
Procedure: The compounds of the present invention were tested to assess their capacity to inhibit cAMP accumulation induced by the A2A agonist 5′-N-ethylcarboxamidoadenosine (NECA).
cAMP quantitative determination was performed with an enzyme immunoassay system (cat. RPN2255, Amersham Biosciences) according to manufacturer's instructions. HEK 293 cells, stably expressing the human adenosine A2a receptor gene (PerkinElmer, Boston, Mass., USA, cat. RBHA2AC), were grown in Falcon flasks in DMEM (Cambrex, Verviers, Belgium) supplemented with 10% FBS (Cambrex), 1 mmol/l sodium pyruvate (Sigma-Aldrich, St. Louis, Mo., USA), and 0.4 mg/ml G418 (Sigma-Aldrich) at 37° C. in a 5% CO2 atmosphere. Cells were plated on 96-well dishes at a concentration of 10^3 cells/well 48 hours before test compound exposure. Before cell stimulation with the compounds, cells were treated for 10 min at 37° C. with 0.5 mmol/l of the phosphodiesterase inhibitor Ro 20-1724 (Sigma-Aldrich) and with 2 U/ml of adenosine deaminase (ADA, Sigma-Aldrich). Medium was then changed with fresh medium containing scalar concentrations of test compounds (10^−10-10^−4 mol/l) at 37° C. and, after 10 min, 100 nmol/l NECA was added. cAMP was extracted 20 min after and quantified.
Data were analyzed by nonlinear regression analysis with GraphPad PRISM commercial software. Test compound concentrations causing a half maximal inhibition of control values (IC50 calculated by GraphPad Prism software) was reported (mean±SEM of four independent experiments).

[2] = target: human adenosine A1 receptor (Homo sapiens (Human), UniProt P30542); experiment: A1 receptor competition binding assay ([3H]DPCPX); settings: membranes of CHO-K1 cells expressing human A1; [3H]DPCPX 1.7 nmol/l; Ki from IC50 by Cheng and Prusoff
Procedure: Competition binding experiments have been performed incubating membranes from CHO-K1 cells stably transfected with the human adenosine A1 receptor (cat. ES-010-M400UA, Perkin Elmer, Boston, Mass., USA) (5-10 μg of protein/sample) with a single concentration of [3H]DPCPX (1.7 nmol/l) (Perkin Elmer), in the presence of various concentrations (ranging from 10^−5 to 10^−10 M) of cold DPCPX, ST4206 and ST4208 in 96-well filter plates (MultiScreen system, cat #MAFBN0B10, Millipore, Billerica, Mass., USA) for 60 min at 25° C. in a total volume of 200 μL/well of 25 mmol/l Hepes, 5 mmol/L MgCl2, 1 mmol/l CaCl2, 100 mmol/L NaCl, pH 7.4 (all from Sigma-Aldrich). Non-specific binding has been determined in the presence of 250 μmol/l of cold DPCPX (8-cyclopentyl-1,3-dipropylxanthine, Sigma-Aldrich). At the end of incubation, bound and free radioligands have been separated by filtering the 96-well filter plates using a Millipore filtration apparatus (MultiscreenHTS vacuum manifold). Filter plates have been washed several times with ice-cold buffer (50 mmol/l Tris-HCl, pH 7.4) and filter-bound radioactivity measured using a MicroBeta counter (PerkinElmer) after addition of 30 μL/well of OptiPhase SuperMix scintillation cocktail (PerkinElmer).
Data have been analyzed using nonlinear regression with GraphPad PRISM commercial software. Data will be expressed as test compound concentration causing a half maximal inhibition of control values (IC50). Inhibitory binding constant (Ki) values will be calculated from IC50 values, according to the Cheng and Prusoff equation K1=IC50/(1+[C]/Kd), where [C] is the concentration of the radioligand and Kd its dissociation constant.

[3] = system: battery of 51 different receptors; experiment: Selectivity profile: affinity toward a battery of 51 different receptors; format: binding, human; settings: tested at 10 μM
From the text: The majority of the 51 assays were human recombinant receptors of the following types: adenosine, adrenergic, cannabinoid, dopamine, GABA, histamine, melatonin, muscarinic, prostanoid and serotonin receptors belonging to non peptide receptors family; angiotensin-II, bradychinin, chemokines, cholecistokinin, endothelin, galanin, melacortin, neurokinin, neuropeptide Y, neurotensin, opioid and opioid like, somatostatin, vasoactive intestinal peptide and vasopressin receptors belonging to peptide receptors family; Ca^2+ channel, K^+ channel and Na^+ channel belonging to the ion channel family and dopamine, norepinephrine and serotonin belonging to the amine transporters receptors family.” These three compounds were tested at a concentration of 10 μM.

[4] = system: 6-OHDA lesioned rats; experiment: Enhancement of L-DOPA antiparkinsonian activity, 6-OHDA lesioned rats; format: in vivo, Rats (Sprague Dawley); settings: 10, 20, 40 mg/kg with threshold dose of L-Dopa (6 mg benserazide + 3 mg L-DOPA); 6-OHDA rats
Procedure: Rats (Sprague Dawley) under chloral hydrate (400 mg/kg) anaesthesia were placed in a Kopf stereotaxic apparatus. Through a stainless steel cannula, 6-OHDA was injected at a rate of 1 μl/min into the left medial forebrain bundle at coordinates A=−2.2, L=+1.5 and V=−7.8, according to the Pellegrino atlas. All rats, including shams, were treated with desipramine (10 mg/kg) 10 min before anaesthesia to prevent damage to noradrenergic neurons.
Two weeks after the 6-OHDA injection, all animals were tested for their contra lateral rotation capacity in response to 30 mg/kg i.p. benserazide followed by 50 mg/kg i.p. of L-Dopa 30 min later. Rats not showing at least 200 contra lateral rotations within the 3 h testing period were eliminated from the study. One week after this test, selected animals were randomized to be enrolled in three studies. Each study involved seven groups of eight animals.
Tested compounds (ST3829, ST3932 and ST4206) were dissolved in a solution containing 10% sucrose and 0.3% Tween 80 in sterile water in order to obtain three different dosage forms (i.e., 10, 20 and 40 mg/kg).
In groups 5, 6 and 7 benserazide was administered first, followed by the tested compound 25 min after and finally by L-DOPA 5 min later.

[5] = target: T1, human adenosine A2a receptor; experiment: A2a receptor competition binding assay ([3H]ZM241385); settings: membranes of HEK293 cells expressing human A2a; [3H]ZM241385 2 nmol/l; Ki from IC50 by Cheng and Prusoff
Procedure: HEK293 cells, stably expressing the human adenosine A2a receptor gene (PerkinElmer, Boston, Mass., USA, cat. RBHA2AC), were grown in Falcon flasks in DMEM (Cambrex, Verviers, Belgium) supplemented with 10% FBS (Cambrex), 1 mmol/l sodium pyruvate (Sigma-Aldrich, Saint Louis, Mo., USA), 0.4 mg/ml G418 (Sigma-Aldrich) at 37° C. in a 5% CO2 atmosphere. For radioligand binding experiments, the cells were collected at 80% of confluence, in 5 mmol/l Tris-HCl (Sigma-Aldrich), pH 7.4, containing 2 mmol/l EDTA, counted, washed in PBS (Cambrex), resuspended in incubation buffer A containing 50 mmol/l Tris-HCl, pH 7.4, 10 mmol/l MgCl2 (Sigma-Aldrich) and homogenized using an Ultra Turrax T25. The membranes were centrifuged and homogenized once again and the final pellet was stored at −80° C. until use. Prior to the competition binding assay, the pellet was resuspended in buffer A at the desired protein concentration and membrane suspension was incubated with 2 U/ml adenosine deaminase (ADA, Sigma-Aldrich) for 30 min at 37° C. to remove endogenous adenosine.
The protein concentration of membrane suspension was determined using the Bradford method (Pierce, Rockford, Ill., USA) with bovine albumin as standard. Competition binding experiments were performed by incubating membranes (5-10 μg of protein/sample) with a single concentration of the A2a antagonist [^3H]ZM241385 (Biotrend, Cologne, Germany) (2 nmol/l), in the presence of various concentrations (ranging from 10^−5 to 10^−11 mol/l) of test and reference compounds in 96-well filter plates (MultiScreen system, cat. MAFBN0B10, Millipore, Billerica, Mass., USA) for one h at 4° C. in a total volume of 200 μl/well of appropriate buffer (50 mmol/l Tris-HCl, pH 7.4, 10 mmol/l MgCl2). Nonspecific binding was determined in the presence of 10 μmol/l cold ZM241385 (Tocris, Ellisville, Mo., USA). At the end of incubation, bound and free radioligands were separated by filtering the 96-well filter plates using a Millipore filtration apparatus (MultiScreenHTS vacuum manifold). Filter plates were then washed several times with ice-cold buffer (50 mmol/l Tris-HCl, pH 7.4) and filter-bound radioactivity measured using a MicroBeta counter (PerkinElmer) after addition of 30 μl/well of OptiPhase SuperMix scintillation cocktail (PerkinElmer). Four experiments were performed in triplicate by JANUS® automated workstation (Perkin Elmer).
Data were analyzed by nonlinear regression analysis with GraphPad PRISM commercial software and expressed as IC50, defined as the concentration of compounds that inhibits 50% of [^3H]ZM241385 binding. Inhibitory binding constant (Ki) values were calculated from IC50 values according to the Cheng and Prusoff equation Ki=IC50/(1+[C]/Kd), where [C] is the concentration of the radioligand and Kd its dissociation constant.

[6] = system: haloperidol-induced catalepsy in CD1 mice; experiment: Haloperidol-induced catalepsy mice model; format: in vivo; settings: oral 10, 20 or 40 mg/kg, haloperidol 2 mg/kg i.p., AUC of catalepsy time over 7 h
Procedure: Haloperidol (2 mg/kg) was injected i.p. to CD1 mice 2.5 h before oral administration of ST3932 or ST4206. The latter were administered at doses of 10, 20 or 40 mg/kg.
Then, each CD1 mouse was gently placed by its forepaws on a wire at a height of 4.5 cm. Catalepsy was measured as the time (expressed in seconds) necessary for the animal to step down with at least one forepaw, with an end point of 60 seconds, time after which the mouse was gently removed from the wire. Then, catalepsy was scored every 60 min for seven h.
All data were expressed both as individual and mean values, plus or minus standard error (Mean±SEM) of catalepsy time in seconds. Statistical analysis was performed using sigma stat program. After calculation of AUC throughout 7 hours, the one-way ANOVA followed by Dunnett's test were used.

Sequence of human adenosine A1 receptor (P30542 whole entry): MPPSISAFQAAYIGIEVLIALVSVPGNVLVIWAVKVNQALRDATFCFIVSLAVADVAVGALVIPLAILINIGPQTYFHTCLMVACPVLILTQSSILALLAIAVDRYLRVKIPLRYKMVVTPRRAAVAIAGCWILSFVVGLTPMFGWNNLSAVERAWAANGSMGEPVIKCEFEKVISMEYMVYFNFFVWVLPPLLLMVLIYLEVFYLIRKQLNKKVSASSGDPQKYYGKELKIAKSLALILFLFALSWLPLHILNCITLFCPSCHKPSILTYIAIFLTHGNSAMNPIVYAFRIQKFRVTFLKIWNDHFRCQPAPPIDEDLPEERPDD
T1 sequence (P29274 whole entry): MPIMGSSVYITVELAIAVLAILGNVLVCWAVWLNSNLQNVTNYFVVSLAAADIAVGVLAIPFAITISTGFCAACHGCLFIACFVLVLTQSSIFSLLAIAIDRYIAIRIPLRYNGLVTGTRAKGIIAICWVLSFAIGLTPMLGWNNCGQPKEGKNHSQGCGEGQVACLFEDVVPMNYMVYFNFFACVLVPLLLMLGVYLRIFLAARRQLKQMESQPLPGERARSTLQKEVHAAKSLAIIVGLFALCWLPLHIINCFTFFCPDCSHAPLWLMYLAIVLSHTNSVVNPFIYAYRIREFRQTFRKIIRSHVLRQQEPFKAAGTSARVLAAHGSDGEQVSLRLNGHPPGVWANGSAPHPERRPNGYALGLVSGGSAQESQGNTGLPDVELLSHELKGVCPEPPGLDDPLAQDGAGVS

SMILES	IC50 [1] [nM]	Ki [2] [nM]	affinity toward 51 receptors [3]	contralateral turning behaviour induced by L-Dopa [4]	Ki [5] [nM]	antagonism of haloperidol-induced catalepsy [6]
CCCC(O)c1nc(N)c2nc(-n3nccn3)n(C)c2n1 (stereo not drawn) [Example 5, 1-(6-Amino-9-methyl-8-[1,2,3]triazol-2-yl-9H-purin-2-yl)butan-1-ol]	2320	120	none of them demonstrated any substantial affinity	efficacy of ST3829 at increasing the number of contralateral rotation	22	
CC(O)CCc1nc(N)c2nc(-n3nccn3)n(C)c2n1 (stereo not drawn) [Example 2, 4-(6-Amino-9-methyl-8[1,2,3]triazol-2-yl-9H-purin-2-yl)butan-2-ol]	450	27	none of them demonstrated any substantial affinity	increased the contralateral turning behaviour induced by L-Dopa	8	significantly antagonized haloperidol-induced catalepsy in a dose-dependent manner
C[C@@H](O)CCc1nc(N)c2nc(-n3nccn3)n(C)c2n1 [Example 4, (R)-4-(6-Amino-9-methyl-8-[1,2,3]triazol-2-yl-9H-purin-2-yl)butan-2-ol]	420				8	
CC(=O)CCc1nc(N)c2nc(-n3nccn3)n(C)c2n1 [Example 7, 4-(6-Amino-9-methyl-8[1,2,3]triazol-2-yl-9H-purin-2-yl)-butan-2-one]	990	197		increased the contralateral turning behaviour induced by L-Dopa	12	significantly antagonized haloperidol-induced catalepsy in a dose-dependent manner
Cn1c(-n2nccn2)nc2c(N)nc(CCCCO)nc21 [Example 1, 4-(6-Amino-9-methyl-8[1,2,3]triazol-2-yl-9H-purin-2-yl)butan-1-ol]	2120	51	none of them demonstrated any substantial affinity		53	
C[C@H](O)CCc1nc(N)c2nc(-n3nccn3)n(C)c2n1 [Example 3, (S)-4-(6-Amino-9-methyl-8-[1,2,3]triazol-2-yl-9H-purin-2-yl)butan-2-ol]	260				19	
CCCC(=O)c1nc(N)c2nc(-n3nccn3)n(C)c2n1 [Example 6, 1-(6-Amino-9-methyl-8-[1,2,3]triazol-2-yl-9H-purin-2-yl)-butan-1-one]	2920	216			19	
